Assay [1] concerns the target T1, SHP1 (Homo sapiens, UniProt P29350).
T1 construct: gene PTPN6
The assay is described as follows: DiFMUP phosphatase assay with recombinant SHP1; supported by thermal stability shift. In kind it is biochemical.

The target in assay [2] is T2, SHP2 (Homo sapiens, UniProt Q06124).
T2 construct: gene PTPN11; GST-SHP2 (residues 205–593)
T2 sequence (Q06124 205-593): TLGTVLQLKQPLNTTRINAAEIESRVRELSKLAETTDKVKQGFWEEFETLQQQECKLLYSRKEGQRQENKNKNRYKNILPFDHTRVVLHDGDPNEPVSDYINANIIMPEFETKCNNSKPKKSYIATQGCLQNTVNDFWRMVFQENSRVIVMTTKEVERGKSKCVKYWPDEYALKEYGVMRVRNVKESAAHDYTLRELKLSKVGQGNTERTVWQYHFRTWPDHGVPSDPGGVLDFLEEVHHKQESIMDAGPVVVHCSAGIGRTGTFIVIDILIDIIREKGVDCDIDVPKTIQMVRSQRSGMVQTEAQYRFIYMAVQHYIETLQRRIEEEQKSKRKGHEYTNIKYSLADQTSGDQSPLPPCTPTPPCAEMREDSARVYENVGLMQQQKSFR
The assay is described as follows: DiFMUP phosphatase assay with recombinant SHP2; supported by cellular thermal shift assay in HEK293A lysate. In kind it is biochemical.

As usually defined, the IC50 is the point on the concentration scale where inhibition reaches its midpoint.

T1 sequence (P29350 whole entry): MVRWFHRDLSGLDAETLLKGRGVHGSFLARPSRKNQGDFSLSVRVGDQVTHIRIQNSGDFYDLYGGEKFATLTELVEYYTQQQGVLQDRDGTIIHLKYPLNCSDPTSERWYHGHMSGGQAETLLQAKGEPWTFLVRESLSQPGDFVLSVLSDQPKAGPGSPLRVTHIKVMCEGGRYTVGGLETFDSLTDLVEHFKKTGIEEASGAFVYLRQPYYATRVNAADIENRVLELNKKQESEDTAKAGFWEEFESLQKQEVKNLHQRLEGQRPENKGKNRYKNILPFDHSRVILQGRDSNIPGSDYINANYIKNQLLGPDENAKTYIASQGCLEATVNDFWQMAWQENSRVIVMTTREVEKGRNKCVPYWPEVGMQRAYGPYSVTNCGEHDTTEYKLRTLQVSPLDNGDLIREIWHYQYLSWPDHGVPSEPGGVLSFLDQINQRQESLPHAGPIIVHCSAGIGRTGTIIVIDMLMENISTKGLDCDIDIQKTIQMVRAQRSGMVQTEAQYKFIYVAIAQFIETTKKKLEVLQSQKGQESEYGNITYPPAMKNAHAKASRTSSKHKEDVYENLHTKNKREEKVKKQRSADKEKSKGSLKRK

Take `O=c1c(O)c(-c2ccc(O)c(O)c2)oc2cc(O)cc(O)c12` [quercetin]: the half-maximal inhibitory concentration (IC50) in assay [1] was determined as 31.1 ± 1.27 µM; in assay [2] it was 10.2 ± 0.21 µM.

(Values after paper PMC5768359, “Dietary quercetin potentiates the antiproliferative effect of interferon-α in hepatocellular carcinoma cells through activation of JAK/STAT pathway signaling by inhibition of SHP2 phosphatase” (Oncotarget, 2017).)
